From patent US20040138212A1, “Disubstituted 1,7-guanines” (priority 2001, published 2004)

Target: telomerase enzyme (Homo sapiens, UniProt O14746)
Experiment: Flash Plate-based telomerase assay
Format: biochemical
Settings: telomerase inhibition, two hours of incubation
Text: The telomerase activity of the compounds of the invention has been evaluated using a Flash Plate-based assay. […] Other methods for determining the inhibitory concentration of a compound of the invention against telomerase can be employed as will be apparent to a person skilled in the art based on the disclosure herein.
Briefly, the assay mixture is costituted by:
telomerase enzyme diluted in a buffer, the composition of which has been selected to maintain the enzyme activity stable along the duration of the assay.
dNTPs, deoxynucleotides 5′-triphosphate.
biotynilated oligo as primer.
increasing concentrations of test compounds/positive control.
After two hours of incubation at […] the telomeric repeats added are evaluated by hybridization in solution with a 3′-labeled short oligonucleotide probe.
The extent of hybridization is then quantitated by transferring the reaction mixture in a streptavidin-coated flash plate, where the binding between biotin and streptavidin occurs.
The telomerase activity is proportional to the radioactivity measured and the inhibitory activity of the compounds is evaluated as IC50 using the Sigma Plot fit program.
With the above-described method, IC50 values of the compounds of the present invention were determined.

Chain of telomerase enzyme (O14746 whole entry): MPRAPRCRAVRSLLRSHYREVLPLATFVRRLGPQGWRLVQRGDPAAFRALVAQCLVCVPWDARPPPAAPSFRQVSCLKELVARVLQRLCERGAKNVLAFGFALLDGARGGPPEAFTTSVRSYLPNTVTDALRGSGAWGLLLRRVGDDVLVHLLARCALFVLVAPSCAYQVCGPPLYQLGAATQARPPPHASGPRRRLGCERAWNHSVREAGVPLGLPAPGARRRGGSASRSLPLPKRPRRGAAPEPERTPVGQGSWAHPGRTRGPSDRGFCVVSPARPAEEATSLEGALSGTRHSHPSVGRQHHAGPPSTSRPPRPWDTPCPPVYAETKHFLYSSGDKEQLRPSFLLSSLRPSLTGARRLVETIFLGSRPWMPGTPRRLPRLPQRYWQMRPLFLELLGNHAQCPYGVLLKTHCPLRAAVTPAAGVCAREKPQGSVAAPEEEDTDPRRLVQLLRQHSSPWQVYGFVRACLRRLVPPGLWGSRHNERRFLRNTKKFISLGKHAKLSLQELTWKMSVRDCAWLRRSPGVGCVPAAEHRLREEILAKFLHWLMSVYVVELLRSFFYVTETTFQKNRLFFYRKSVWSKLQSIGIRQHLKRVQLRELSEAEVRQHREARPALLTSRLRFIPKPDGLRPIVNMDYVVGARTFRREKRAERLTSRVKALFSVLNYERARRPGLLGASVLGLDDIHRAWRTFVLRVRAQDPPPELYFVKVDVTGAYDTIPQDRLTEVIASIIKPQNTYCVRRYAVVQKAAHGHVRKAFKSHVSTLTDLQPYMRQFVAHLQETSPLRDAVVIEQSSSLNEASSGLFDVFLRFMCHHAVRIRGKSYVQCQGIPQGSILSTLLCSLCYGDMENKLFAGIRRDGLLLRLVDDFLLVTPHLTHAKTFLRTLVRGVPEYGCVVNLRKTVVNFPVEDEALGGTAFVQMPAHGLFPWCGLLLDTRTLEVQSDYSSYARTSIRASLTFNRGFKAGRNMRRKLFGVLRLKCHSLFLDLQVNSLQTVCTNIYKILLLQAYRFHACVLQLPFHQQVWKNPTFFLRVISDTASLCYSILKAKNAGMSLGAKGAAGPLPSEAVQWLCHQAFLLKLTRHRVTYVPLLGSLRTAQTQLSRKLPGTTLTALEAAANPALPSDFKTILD

- IC50: 12.3 µM
Structure (SMILES): COC(=O)c1ccc(Cn2c(N)nc3ncn(Cc4ccc(C(=O)OC)cc4)c3c2=O)cc1 [compound 13, methyl 4-({2-amino-7-[4-(methoxycarbonyl)benzyl]-6-oxo-6,7-dihydro-1H-purin-1-yl}methyl) benzoate]
